Source: ChEMBL document CHEMBL3885881, “DrugMatrix”

Organism: Rattus norvegicus
Assay: DrugMatrix - Regimen: Daily Repeat
Format: toxicity, organism-based, Sprague-Dawley
Parameters: regimen Daily Repeat, gender Male, age 6-8 weeks
Settings: in vivo, po, 30 mg/kg, route oral GAVAGE, dose level Low, vehicle .5 % CMC; for ABSOLUTE BASOPHIL / ABSOLUTE EOSINOPHIL / ABSOLUTE LYMPHOCYTE / ABSOLUTE MONOCYTE / ABSOLUTE SEGMENTED NEUTROPHIL / BASOPHIL / EOSINOPHIL / ERYTHROCYTE COUNT / HEMATOCRIT / HEMOGLOBIN / LEUKOCYTE COUNT / LYMPHOCYTE / MEAN CORPUSCULAR HEMOGLOBIN / MEAN CORPUSCULAR HEMOGLOBIN CONCENTRATION / MEAN CORPUSCULAR VOLUME / MONOCYTE / NEUTROPHIL / NUCLEATED RED BLOOD CELLS / PLATELET COUNT: tissue Blood
[1] = 72 h, tissue Plasma, time 3 day
[2] = 120 h, tissue Plasma, time 5 day

O=C(O)COc1ccc(C(=O)c2cccs2)c(Cl)c1Cl
ABSOLUTE BASOPHIL (72 h, time 3 day): 0 CELLS/uL
ABSOLUTE EOSINOPHIL (72 h, time 3 day): 0 CELLS/uL
ABSOLUTE LYMPHOCYTE (72 h, time 3 day): 7024 CELLS/uL
ABSOLUTE MONOCYTE (72 h, time 3 day): 269 CELLS/uL
ABSOLUTE SEGMENTED NEUTROPHIL (72 h, time 3 day): 840.33 CELLS/uL
BASOPHIL (72 h, time 3 day): 0%
EOSINOPHIL (72 h, time 3 day): 0%
ERYTHROCYTE COUNT (72 h, time 3 day): 5.29 x10E6/uL
HEMATOCRIT (72 h, time 3 day): 33.2%
HEMOGLOBIN (72 h, time 3 day): 12.83 G/DL
LEUKOCYTE COUNT (72 h, time 3 day): 8.13 x10E3/uL
LYMPHOCYTE (72 h, time 3 day): 86.33%
MEAN CORPUSCULAR HEMOGLOBIN (72 h, time 3 day): 24.27 pg
MEAN CORPUSCULAR HEMOGLOBIN CONCENTRATION (72 h, time 3 day): 38.67 G/DL
MEAN CORPUSCULAR VOLUME (72 h, time 3 day): 62.8 fL
MONOCYTE (72 h, time 3 day): 3%
NEUTROPHIL (72 h, time 3 day): 10.67%
NUCLEATED RED BLOOD CELLS (72 h, time 3 day): 0.67 /100WBC
PLATELET COUNT (72 h, time 3 day): 1021.33 x10E3/uL
ALANINE AMINOTRANSFERASE [1]: 60.33 u/L
ALBUMIN [1]: 4.17 G/DL
ALKALINE PHOSPHATASE [1]: 394.67 u/L
ASPARTATE AMINOTRANSFERASE [1]: 94.33 u/L
BLOOD UREA NITROGEN [1]: 14.67 mg/dL
CARBON DIOXIDE [1]: 33.67 mmol/L
CHLORIDE [1]: 99.67 MEQ/L
CHOLESTEROL [1]: 74 mg/dL
CREATINE PHOSPHOKINASE [1]: 524.67 u/L
CREATININE [1]: 0.26 mg/dL
GLUCOSE [1]: 144.67 mg/dL
LACTATE DEHYDROGENASE [1]: 159 u/L
LIPASE [1]: 9.33 u/L
PHOSPHORUS [1]: 12.93 mg/dL
POTASSIUM [1]: 6.21 MEQ/L
SODIUM [1]: 144.4 MEQ/L
TOTAL BILIRUBIN [1]: 0.17 mg/dL
TOTAL PROTEIN [1]: 6.2 G/DL
URIC ACID [1]: 0.5 mg/dL
ABSOLUTE BASOPHIL (120 h, time 5 day): 0 CELLS/uL
ABSOLUTE EOSINOPHIL (120 h, time 5 day): 52.67 CELLS/uL
ABSOLUTE LYMPHOCYTE (120 h, time 5 day): 10475.33 CELLS/uL
ABSOLUTE MONOCYTE (120 h, time 5 day): 92 CELLS/uL
ABSOLUTE SEGMENTED NEUTROPHIL (120 h, time 5 day): 1380 CELLS/uL
BASOPHIL (120 h, time 5 day): 0%
EOSINOPHIL (120 h, time 5 day): 0.33%
ERYTHROCYTE COUNT (120 h, time 5 day): 5.51 x10E6/uL
HEMATOCRIT (120 h, time 5 day): 35.03%
HEMOGLOBIN (120 h, time 5 day): 13.53 G/DL
LEUKOCYTE COUNT (120 h, time 5 day): 12 x10E3/uL
LYMPHOCYTE (120 h, time 5 day): 87.67%
MEAN CORPUSCULAR HEMOGLOBIN (120 h, time 5 day): 24.53 pg
MEAN CORPUSCULAR HEMOGLOBIN CONCENTRATION (120 h, time 5 day): 38.63 G/DL
MEAN CORPUSCULAR VOLUME (120 h, time 5 day): 63.57 fL
MONOCYTE (120 h, time 5 day): 0.67%
NEUTROPHIL (120 h, time 5 day): 11.33%
NUCLEATED RED BLOOD CELLS (120 h, time 5 day): 0 /100WBC
PLATELET COUNT (120 h, time 5 day): 1276 x10E3/uL
ALANINE AMINOTRANSFERASE [2]: 51 u/L
ALBUMIN [2]: 4.23 G/DL
ALKALINE PHOSPHATASE [2]: 420.67 u/L
ASPARTATE AMINOTRANSFERASE [2]: 78.33 u/L
BLOOD UREA NITROGEN [2]: 13 mg/dL
CARBON DIOXIDE [2]: 35.67 mmol/L
CHLORIDE [2]: 97.33 MEQ/L
CHOLESTEROL [2]: 80 mg/dL
CREATINE PHOSPHOKINASE [2]: 446.67 u/L
CREATININE [2]: 0.27 mg/dL
GLUCOSE [2]: 136 mg/dL
LACTATE DEHYDROGENASE [2]: 169.67 u/L
LIPASE [2]: 8.33 u/L
PHOSPHORUS [2]: 12.7 mg/dL
POTASSIUM [2]: 6.46 MEQ/L
SODIUM [2]: 142.87 MEQ/L
TOTAL BILIRUBIN [2]: 0.2 mg/dL
URIC ACID [2]: 0.8 mg/dL
